Data on 24 compounds can be found in paper PMC2096529 (Purinergic Signalling, 2005).

Among the targets are human P2Y2 receptor (Homo sapiens, UniProt P41231); human P2Y6 receptor (Homo sapiens, UniProt Q15077); human P2Y4 receptor (Homo sapiens, UniProt P51582); human P2Y1 receptor (Homo sapiens, UniProt P47900).
Holding throughout (experiment): Fluo-3 calcium mobilization, FLIPR, […]1 cells
Holding throughout (assay type): cell-based
On the technique in general: A change in cytosolic calcium serves as a functional read-out for many receptors and channels.

Chain of human P2Y2 receptor (P41231 whole entry): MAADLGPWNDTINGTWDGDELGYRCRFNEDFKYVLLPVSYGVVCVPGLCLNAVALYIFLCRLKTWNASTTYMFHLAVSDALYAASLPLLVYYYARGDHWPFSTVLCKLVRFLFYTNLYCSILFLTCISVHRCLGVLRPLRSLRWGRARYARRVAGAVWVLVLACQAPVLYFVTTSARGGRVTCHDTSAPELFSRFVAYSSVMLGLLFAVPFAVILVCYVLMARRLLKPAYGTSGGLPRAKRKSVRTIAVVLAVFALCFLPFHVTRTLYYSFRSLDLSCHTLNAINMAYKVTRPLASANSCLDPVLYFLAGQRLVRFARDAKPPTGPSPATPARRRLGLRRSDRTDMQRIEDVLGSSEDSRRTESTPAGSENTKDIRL
Chain of human P2Y4 receptor (P51582 whole entry): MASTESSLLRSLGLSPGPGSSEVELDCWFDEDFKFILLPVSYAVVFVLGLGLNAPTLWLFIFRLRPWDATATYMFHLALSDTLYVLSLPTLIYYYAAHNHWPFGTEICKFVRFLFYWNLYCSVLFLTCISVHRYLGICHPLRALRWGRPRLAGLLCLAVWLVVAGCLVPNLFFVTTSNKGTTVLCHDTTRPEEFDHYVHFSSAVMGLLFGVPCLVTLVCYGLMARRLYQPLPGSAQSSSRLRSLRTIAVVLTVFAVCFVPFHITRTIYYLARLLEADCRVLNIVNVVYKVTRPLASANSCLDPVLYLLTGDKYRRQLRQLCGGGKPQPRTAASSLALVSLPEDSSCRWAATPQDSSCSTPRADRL
Chain of human P2Y6 receptor (Q15077 whole entry): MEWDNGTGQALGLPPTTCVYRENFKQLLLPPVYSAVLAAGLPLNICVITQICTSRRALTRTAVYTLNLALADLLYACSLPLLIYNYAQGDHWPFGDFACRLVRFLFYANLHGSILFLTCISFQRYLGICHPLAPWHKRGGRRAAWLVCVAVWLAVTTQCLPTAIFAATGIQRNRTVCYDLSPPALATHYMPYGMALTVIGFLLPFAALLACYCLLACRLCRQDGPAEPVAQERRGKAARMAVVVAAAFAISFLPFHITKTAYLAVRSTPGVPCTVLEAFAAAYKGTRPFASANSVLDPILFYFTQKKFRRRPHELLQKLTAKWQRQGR
Chain of human P2Y1 receptor (P47900 whole entry): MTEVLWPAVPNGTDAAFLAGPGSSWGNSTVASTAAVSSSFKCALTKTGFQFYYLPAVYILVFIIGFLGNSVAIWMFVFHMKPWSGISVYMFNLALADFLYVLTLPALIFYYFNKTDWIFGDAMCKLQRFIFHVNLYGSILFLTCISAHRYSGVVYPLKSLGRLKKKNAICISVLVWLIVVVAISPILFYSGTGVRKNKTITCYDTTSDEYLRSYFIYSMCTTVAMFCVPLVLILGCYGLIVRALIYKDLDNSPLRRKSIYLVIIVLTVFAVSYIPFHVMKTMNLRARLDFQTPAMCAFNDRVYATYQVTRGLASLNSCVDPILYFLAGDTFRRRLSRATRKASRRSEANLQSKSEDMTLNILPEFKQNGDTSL

The EC50 is the concentration at which the effect is half-maximal. Regarding `Nc1ncnc2c1ncn2[C@@H]1O[C@H](COP(=O)(O)OP(=O)(O)OP(=O)(O)O)[C@@H](O)[C@H]1O` [ATP], the EC50 on human P2Y2 receptor amounted to 15 nM.
In the case of `O=c1ccn([C@@H]2O[C@H](COP(=O)(O)OP(=O)(O)OC[C@H]3O[C@@H](n4ccc(=O)[nH]c4=O)[C@H](O)[C@@H]3O)[C@@H](O)[C@H]2O)c(=O)[nH]1` [compound 4, UP2U], on human P2Y6 receptor, the EC50 turned out to be 33000 nM.
`O=c1ccn([C@@H]2O[C@H](COP(=O)(O)OP(=O)(O)OP(=O)(O)O)[C@@H](O)[C@H]2O)c(=O)[nH]1` [compound 7, UTP]: the EC50 on human P2Y2 receptor was 15 nM; at human P2Y6 receptor, 1470 nM; on human P2Y4 receptor it was 70 nM.
As to `Nc1ncnc2c1ncn2[C@@H]1O[C@H](CO[P@](=O)(O)O[P@](=O)(O)OC[C@H]2O[C@@H](n3cnc4c(N)ncnc43)[C@H](O)[C@@H]2O)[C@@H](O)[C@H]1O` [compound 13, AP2A], at human P2Y1 receptor, the EC50 worked out at 4250 nM.
With `Nc1ncnc2c1ncn2[C@@H]1O[C@H](COP(=O)(O)OP(=O)(O)OC[C@H]2O[C@@H](n3ccc(=O)[nH]c3=O)[C@H](O)[C@@H]2O)[C@@H](O)[C@H]1O` [compound 14, AP2U], the EC50 was 23400 nM at human P2Y2 receptor and 2850 nM at human P2Y1 receptor.
As for `Nc1nc2c(ncn2[C@@H]2O[C@H](COP(=O)(O)OP(=O)(O)OC[C@H]3O[C@@H](n4ccc(=O)[nH]c4=O)[C@H](O)[C@@H]3O)[C@@H](O)[C@H]2O)c(=O)[nH]1` [compound 18, UP2G], the figures for the EC50 on human P2Y2 receptor, on human P2Y6 receptor and on human P2Y4 receptor were 2100 nM, 7540 nM and 4640 nM, respectively.
Consider `O=c1[nH]cnc2c1ncn2[C@@H]1O[C@H](COP(=O)(O)OP(=O)(O)OC[C@H]2O[C@@H](n3cnc4c(=O)[nH]cnc43)[C@H](O)[C@@H]2O)[C@@H](O)[C@H]1O` [compound 22, IP2I], for which the EC50 was 4800 nM on human P2Y2 receptor, greater than 10000 nM at human P2Y6 receptor and 5060 nM at human P2Y4 receptor.
For the compound `Nc1ncnc2c1ncn2[C@@H]1O[C@H](COP(=O)(O)OP(=O)(O)OP(=O)(O)OC[C@H]2O[C@@H](n3cnc4c(N)ncnc43)[C@H](O)[C@@H]2O)[C@@H](O)[C@H]1O` [compound 25, AP3A], the figures for the concentration giving a half-maximal response (EC50) at human P2Y2 receptor and on human P2Y1 receptor were 28500 nM and 11 nM, respectively.
As to `Nc1ccn([C@@H]2O[C@H](COP(=O)(O)OP(=O)(O)OP(=O)(O)OC[C@H]3O[C@@H](n4ccc(=O)[nH]c4=O)[C@H](O)[C@@H]3O)[C@@H](O)[C@H]2O)c(=O)n1` [compound 31, UP3C], the results for the 50% effective concentration (EC50) on human P2Y2 receptor, on human P2Y6 receptor and at human P2Y4 receptor were 2000 nM, 520 nM and 16700 nM, respectively.
On to `Nc1nc2c(ncn2[C@@H]2O[C@H](COP(=O)(O)OP(=O)(O)OP(=O)(O)OC[C@H]3O[C@@H](n4ccc(=O)[nH]c4=O)[C@H](O)[C@@H]3O)[C@@H](O)[C@H]2O)c(=O)[nH]1` [compound 32, UP3G], for which, on human P2Y6 receptor, the EC50 was found to be 380 nM.
For `O=c1ccn([C@@H]2O[C@H](COP(=O)(O)OP(=O)(O)OP(=O)(O)OC[C@H]3O[C@@H](n4cnc5c(=O)[nH]cnc54)[C@H](O)[C@@H]3O)[C@@H](O)[C@H]2O)c(=O)[nH]1` [compound 33, UP3I], the EC50 amounted to 4500 nM at human P2Y2 receptor and 1310 nM at human P2Y6 receptor.
As to `Nc1nc2c(ncn2[C@H]2C[C@H](O)[C@@H](COP(=O)(O)OP(=O)(O)OP(=O)(O)OC[C@H]3O[C@@H](n4ccc(=O)[nH]c4=O)[C@H](O)[C@@H]3O)O2)c(=O)[nH]1` [compound 34, UP3dG], the EC50 on human P2Y2 receptor was 470 nM; at human P2Y6 receptor, 280 nM; at human P2Y4 receptor, 1980 nM.
With `Nc1ccn([C@@H]2O[C@H](COP(=O)(O)OP(=O)(O)OP(=O)(O)OC[C@H]3O[C@@H](n4cnc5c(=O)[nH]cnc54)[C@H](O)[C@@H]3O)[C@@H](O)[C@H]2O)c(=O)n1` [compound 35, CP3I], the EC50 on human P2Y2 receptor and on human P2Y1 receptor was greater than 10000 nM in each case.
Consider `Nc1nc2c(ncn2[C@@H]2O[C@H](COP(=O)(O)OP(=O)(O)OP(=O)(O)OC[C@H]3O[C@@H](n4cnc5c(=O)[nH]cnc54)[C@H](O)[C@@H]3O)[C@@H](O)[C@H]2O)c(=O)[nH]1` [compound 37, IP3G], for which the 50% effective concentration (EC50) at human P2Y2 receptor was greater than 10000 nM; on human P2Y6 receptor, greater than 10000 nM; at human P2Y4 receptor, 6410 nM.
Turning to `O=c1ccn([C@@H]2O[C@H](COP(=O)(O)OP(=O)(O)OP(=O)(O)OP(=O)(O)OC[C@H]3O[C@@H](n4ccc(=O)[nH]c4=O)[C@H](O)[C@@H]3O)[C@@H](O)[C@H]2O)c(=O)[nH]1` [compound 43, UP4U], the figures for the concentration for a half-maximal effect (EC50) at human P2Y6 receptor and at human P2Y4 receptor were 24800 nM and 200 nM, respectively.
In the case of `Nc1ccn([C@@H]2O[C@H](COP(=O)(O)OP(=O)(O)OP(=O)(O)OP(=O)(O)OC[C@H]3O[C@@H](n4ccc(=O)[nH]c4=O)[C@H](O)[C@@H]3O)[C@@H](O)[C@H]2O)c(=O)n1` [compound 44, UP4C], the half-maximal effective concentration (EC50) at human P2Y2 receptor was determined as 460 nM; on human P2Y6 receptor, 12100 nM; on human P2Y4 receptor it was 850 nM.
`O=c1ccn([C@@H]2O[C@H](COP(=O)(O)OP(=O)(O)OP(=O)(O)OP(=O)(O)OC[C@H]3O[C@@H](n4cnc5c(=O)[nH]cnc54)[C@H](O)[C@@H]3O)[C@@H](O)[C@H]2O)c(=O)[nH]1` [compound 45, UP4I]: the 50% effective concentration (EC50) was 520 nM at human P2Y2 receptor, greater than 10000 nM on human P2Y6 receptor and 280 nM on human P2Y4 receptor.
As to `Cc1cn([C@H]2C[C@H](O)[C@@H](COP(=O)(O)OP(=O)(O)OP(=O)(O)OP(=O)(O)OC[C@H]3O[C@@H](n4ccc(=O)[nH]c4=O)[C@H](O)[C@@H]3O)O2)c(=O)[nH]c1=O` [compound 46, UP4T], the 50% effective concentration (EC50) at human P2Y2 receptor was 180 nM; on human P2Y4 receptor it was 350 nM.
Take `O=c1ccn([C@@H]2O[C@H](COP(=O)(O)OP(=O)(O)OP(=O)(O)OP(=O)(O)OC[C@H]3O[C@@H](n4ccc(=S)[nH]c4=O)[C@H](O)[C@@H]3O)[C@@H](O)[C@H]2O)c(=O)[nH]1` [compound 47, UP44-thioU]: the values for the concentration giving a half-maximal response (EC50) on human P2Y2 receptor, at human P2Y6 receptor and at human P2Y4 receptor were 40 nM, 190000 nM and 170 nM, respectively.
The matching figures for `O=c1ccn([C@@H]2O[C@H](COP(=O)(O)OP(=O)(O)OP(=O)(O)OP(=O)(O)OC[C@H]3O[C@@H](n4cnc5c(=O)[nH]cnc54)C[C@@H]3O)[C@@H](O)[C@H]2O)c(=O)[nH]1` [compound 48, UP4dI]: 230 nM, greater than 10000 nM and 470 nM.
For the compound `Nc1nc2c(ncn2[C@H]2C[C@H](O)[C@@H](COP(=O)(O)OP(=O)(O)OP(=O)(O)OP(=O)(O)OC[C@H]3O[C@@H](n4ccc(=O)[nH]c4=O)[C@H](O)[C@@H]3O)O2)c(=O)[nH]1` [compound 49, UP4dG], the EC50 at human P2Y2 receptor amounted to 60 nM; on human P2Y6 receptor, 1680 nM; at human P2Y4 receptor, 140 nM.
On to `Nc1ccn([C@H]2C[C@H](O)[C@@H](COP(=O)(O)OP(=O)(O)OP(=O)(O)OP(=O)(O)OC[C@H]3O[C@@H](n4ccc(=O)[nH]c4=O)[C@H](O)[C@@H]3O)O2)c(=O)n1` [compound 51, UP4dC], for which the results for the concentration giving a half-maximal response (EC50) at human P2Y6 receptor and on human P2Y4 receptor were 16000 nM and 1220 nM, respectively.
Regarding `Nc1ccn([C@@H]2O[C@H](COP(=O)(O)OP(=O)(O)OP(=O)(O)OP(=O)(O)OC[C@H]3O[C@@H](n4ccc(=S)[nH]c4=O)[C@H](O)[C@@H]3O)[C@@H](O)[C@H]2O)c(=O)n1` [compound 55, CP44-thioU], the 50% effective concentration (EC50) at human P2Y2 receptor is 36 nM; at human P2Y6 receptor, 5220 nM; on human P2Y4 receptor, 110 nM.
In the case of `O=c1[nH]c(=S)ccn1[C@@H]1O[C@H](COP(=O)(O)OP(=O)(O)OP(=O)(O)OP(=O)(O)OC[C@H]2O[C@@H](n3ccc(=S)[nH]c3=O)[C@H](O)[C@@H]2O)[C@@H](O)[C@H]1O` [compound 56, 4-thioUP44-thioU], the 50% effective concentration (EC50) on human P2Y2 receptor amounted to 82 nM; at human P2Y6 receptor, 6820 nM; at human P2Y4 receptor, 90 nM.
